These results are taken from article PMC5978685, “Design, Synthesis, and Evaluation of Novel Immunomodulatory Small Molecules Targeting the CD40–CD154 Costimulatory Protein-Protein Interaction” (Molecules : A Journal of Synthetic Chemistry and Natural …, 2018).

The subject of assay [1] is alloantigen-induced T cell response in draining popliteal lymph node. The experiment in a line: alloantigen-induced T cell expansion in draining lymph node. In kind it is in vivo, mouse (Balb/c). The settings on record: Balb/c mice, DBA-2 splenocytes in footpad; 10–20 mg/kg s.c. b.i.d.; p < 0.0001 vs vehicle. Here is the method: The most promising compounds of the present series were evaluated for in vivo activity using the same model of alloantigen-induced T cell expansion in the draining lymph nodes (DLNs) that was described before. This procedure involved injection of splenocytes isolated from DBA-2 mice into the footpad of Balb/c recipients. Within three full days, this causes a significant increase in the number of cells in the draining popliteal lymph node, and this is inhibited by compounds with immunosuppressive activity.
The ability to inhibit alloantigen-induced T cell response in a draining lymph node was tested as described before. In brief, BALB/c mice (10–12 weeks old, female) received a footpad injection of 1 × 10^7 splenocytes isolated from DBA-2 mice (10–12 weeks old, male). CD154 antibody (MR-1; 20 mg/kg, day −1 and 0) or test compounds (20–60 mg/kg; b.i.d. from day −1 to 3, in 20% HPβCD) were administered s.c., and the draining popliteal lymph nodes (DLNs) were collected 3 days after the alloantigen challenge. DLN cells were counted and data are shown as mean ± SD (n = 3–4 per group).
(§1) All binding inhibition and cell assays were tested in duplicate or triplicate per plates, and assays were performed as at least three independent experiments. As before, binding and cytotoxicity data were converted to percent inhibition and fitted with standard log inhibitor vs. normalized response models using nonlinear regression in GraphPad Prism (GraphPad, La Jolla, CA, USA) to establish half-maximal (median) inhibitory concentration (IC50) or median lethal concentration (LC50) values. Cell assay data were fitted with a similar model that also allowed for a variable slope using the log inhibitor vs. normalized response (variable slope) model from Prism with a Hill slope (n) shared across all compounds. Cell assays and draining lymph node data were analyzed by one-way repeated-measures analysis of variance (ANOVA) followed by Dunnett’s multiple comparison test as a post hoc test for individual differences using GraphPad Prism and a significance level of p < 0.05 for all comparisons.
Figure 6 Inhibition of alloantigen-induced T cell response in a draining lymph node by compounds 6, 15, 18, and 19. Mice (Balb/c) received a footpad injection of allogeneic splenocytes (isolated from DBA-2 mice) and were treated with anti-CD154 antibody (MR-1; 20 mg/kg, day −1 and 0) or compounds as shown (10–40 mg/kg, b.i.d. from day −1 to 3, s.c. in 20% HPβCD). Draining (popliteal) lymph nodes were collected three days after the alloantigen challenge and cells were counted. Data are shown as mean ± SD. Significant differences compared to vehicle-treated controls are indicated by asterisks (**** p < 0.0001; one-way ANOVA followed by Dunnett’s multiple comparison test).

The target in a further assay is T1, CD40–CD154 (CD40L) (Homo sapiens, UniProt P29965).
T1 construct: purchased Enzo Life Sciences
T1 sequence (P29965 116-261 limits assumed): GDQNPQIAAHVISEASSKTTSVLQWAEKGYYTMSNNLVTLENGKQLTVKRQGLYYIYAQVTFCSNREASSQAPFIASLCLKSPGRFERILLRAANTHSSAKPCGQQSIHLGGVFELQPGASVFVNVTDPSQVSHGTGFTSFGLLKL
The experiment in a line: cell-free ELISA-type binding inhibition assay, CD40–CD154. As to conditions: for IC50: cell-free CD40–CD154 binding inhibition, read-out: CD40 IC50; for selectivity toward CD40–CD154 against all other PPIs tested: vs OX40–OX40L, BAFFR–BAFF, TNF-R1–TNF-α.
Text: As a first assessment, the CD40–CD154 inhibitory activity of compounds 6–19 (Figure 2, Table 1) was quantified using a cell-free in vitro binding inhibition assay as described before. Data fitted with typical sigmoidal concentration dependence curves (log inhibitor versus response model in GraphPad Prism, Hill slope n = 1) are summarized in Figure 3A. […] Polymolecular conglomeration and/or aggregation is often a cause of promiscuous inhibition in screening assays. Therefore, just as in our previous work, we checked for this, and we confirmed for several compounds that inhibition due to aggregation is not the case by retesting inhibitory activity in the presence of a non-ionic detergent (Triton-X 100, 0.01%) as recommended for the detection of such effects.
Binding inhibition assays were performed in a 96-well cell-free format as described before. Briefly, microtiter plates (Nunc F Maxisorp, 96-well; Thermo Fisher Scientific, Waltham, MA, USA) were coated overnight at 4 °C with 100 μL/well of Fc-conjugated receptors diluted in PBS pH 7.2. This was followed by blocking with 200 μL/well of blocking solution (PBS pH 7.2, 0.05% Tween-20, 1% BSA) for 1 h at RT. Then, plates were washed twice using washing solution (PBS pH 7.4, 0.05% Tween-20) and tapped dry before the addition of the appropriate FLAG tagged ligands along with different concentrations of tested dyes diluted in binding buffer (100 mM HEPES, 0.005% BSA pH 7.2) to give a total volume of 100 μL/well. After 1 h incubation, three washes were conducted, and anti-FLAG HRP conjugate was used to detect the bound FLAG-tagged ligand. Plates were washed four times before the addition of 120 μL/well of HRP substrate TMB (3,3′,5,5′-tetramethylbenzidine) and kept in the dark for up to 15 min. The reaction was stopped using 30 μL of 1M H2SO4, and the absorbance value was read at 450 nm. The concentrations of receptors used were 0.3 μg/mL for CD40, TNF-R1, and BAFFR; 0.6 μg/mL for OX40. The concentrations of the ligands were fixed at 0.02 μg/mL for CD154 and TNF-α, 0.06 μg/mL for OX40L, and 0.03 μg/mL for BAFF. These values were selected following preliminary testing to optimize response (i.e., to produce a high-enough signal at conditions close to half-maximal response, EC50). […] To verify that inhibition is not due to colloidal aggregation, CD40 binding inhibition was also measured in the presence of the non-ionic detergent Triton-X 100 (0.01%), as recommended for the detection of such effects.
as §1
Data are (counterclockwise) for human CD40–CD154 (CD40L) (A); OX40–OX40L (B); BAFFR–BAFF (C); and TNF-R1–TNFα (D) and were fitted with standard binding curves. Data are average ± SD (normalized to percent binding) for n = 3 independent experiments with duplicates for each condition.

The structures appear in SMILES notation. Entries after “also recorded” stand apart in the source; their conditions may differ.

`O=C(Nc1ccc(-c2ccc(C(=O)Nc3cccc4cccc(S(=O)(=O)O)c34)cc2)nc1)c1ccc([N+](=O)[O-])cc1` [Compound 18, 8-(4-(5-(4-Nitrobenzamido)pyridin-2-yl)benzamido)naphthalene-1-sulfonic acid]: the “inhibition of alloantigen-induced T cell expansion in draining lymph node” value (shortened to “inhibition”) in assay [1] is given as “highly significant inhibitory activity; also recorded: inhibited the alloantigen-induced T cell response in this model in statistically significant manner”. In addition, on CD40–CD154 (CD40L), the 50% inhibitory concentration (IC50) (usually the concentration needed to halve the response being measured) worked out at 1340 nM.

Consider `O=C(Nc1ccc(-c2ccc(C(=O)Nc3cccc4cccc(S(=O)(=O)O)c34)cc2)cc1)c1ccc([N+](=O)[O-])cc1` [Compound 6, 8-(4′-(4-Nitrobenzamido)biphenyl-4-ylcarboxamido)naphthalene-1-sulfonic acid], for which the “inhibition” value in assay [1] was “highly significant inhibitory activity; also recorded: inhibited the alloantigen-induced T cell response in this model in statistically significant manner”. The IC50 on CD40–CD154 (CD40L) was determined as 87 nM.

Turning to `COC(=O)c1ccc(-c2ccc(C(=O)Nc3ccc(-c4ccc(C(=O)Nc5cccc6cccc(S(=O)(=O)O)c56)cc4)cc3)cc2)cc1` [Compound 15, 8-(4′-(4′-(Methoxycarbonyl)-[1,1′-biphenyl]-4-carboxamido)-[1,1′-biphenyl]-4-carboxamido)naphthalene-1-sulfonic acid], the “inhibition” value in assay [1] is listed as “highly significant inhibitory activity; also recorded: inhibited the alloantigen-induced T cell response in this model in statistically significant manner”. Besides, at CD40–CD154 (CD40L), the IC50 was 19 nM and the “selectivity toward CD40–CD154 against all other PPIs tested” value is on record as greater than 30 fold. Besides, the “selectivity toward CD40–CD154 against all other PPIs tested” value on CD40–CD154 (CD40L) (listed as DRI-C21095) is “more than thirty-fold”.
